Reference: patent US12642799B2, “Composition and method for treating COVID-19” (University of South Florida, priority 2021, dated 2026)

Assays:
TNFα, IL-6 = assay type: cell-based
[1] = system: SARS CoV-2 (variants) infected Calu3 cells; assay type: cell-based

Molecule | inhibition of inflammatory cytokine production (TNFα, IL-6 mRNA) (TNFα, IL-6) | inhibition of viral replication (SARS CoV2 N protein mRNA) [1]
N[C@@H](CC(=O)N1CCn2c(nnc2C(F)(F)F)C1)Cc1cc(F)c(F)cc1F [sitagliptin] | equally effective | equally effective
sitagliptin monohydrate phosphate | equally effective | equally effective
